Reference: ChEMBL document CHEMBL4308901, “Synthesis and biological evaluation of BMS-986120 and its deuterated derivatives as PAR4 antagonists” (Bioorg Med Chem, 2019)

species: Mus musculus; assay: Antiplatelet activity in ICR mouse platelet rich plasma assessed as inhibition of PAR4-AP-induced platelet aggregation pretreated for 5 mins followed by PAR4-AP addition by aggregometric analysis; format: functional

Row | Compound | IC50 [nM]
1 | [2H]C(Oc1cc(OC([2H])([2H])[2H])cc2oc(-c3cn4nc(OC)sc4n3)cc12)c1nc(N2CCOCC2)sc1C (stereo not drawn) | 8.15
2 | [2H]C([2H])([2H])Oc1nn2cc(-c3cc4c(OCc5nc(N6CCOCC6)sc5C)cc(OC)cc4o3)nc2s1 | 8.74
3 | [2H]C(Oc1cc(OC)cc2oc(-c3cn4nc(OC([2H])([2H])[2H])sc4n3)cc12)c1nc(N2CCOCC2)sc1C (stereo not drawn) | 7.69
4 | COc1cc(OCc2nc(N3CCOCC3)sc2C)c2cc(-c3cn4nc(OC)sc4n3)oc2c1 | 7.8
5 | [2H]C([2H])([2H])Oc1cc(OCc2nc(N3CCOCC3)sc2C)c2cc(-c3cn4nc(OC([2H])([2H])[2H])sc4n3)oc2c1 | 6.97
6 | [2H]C([2H])([2H])Oc1cc(OCc2nc(N3CCOCC3)sc2C)c2cc(-c3cn4nc(OC)sc4n3)oc2c1 | 6.3

Now from value to molecule:

Row | IC50 [nM] | Compound
7 | 9.45 | [2H]C(Oc1cc(OC([2H])([2H])[2H])cc2oc(-c3cn4nc(OC([2H])([2H])[2H])sc4n3)cc12)c1nc(N2CCOCC2)sc1C (stereo not drawn)
8 | 14.5 | [2H]C(Oc1cc(OC)cc2oc(-c3cn4nc(OC)sc4n3)cc12)c1nc(N2CCOCC2)sc1C (stereo not drawn)
